PubChem BioAssay AID1259407 (Chemical Carcinogenesis Research Information System (CCRIS), 2018)
Calls of active or inactive are those of the source. No rule for the calls is given here.

System: CCRIS mutagenicity, Ames/micronucleus/aberration tests
Experiment: CCRIS mutagenicity studies
[1] = Test System: AMES SALMONELLA TYPHIMURIUM, Strain/Indicator: TA98, Metabolic Activation: NONE, Method: STANDARD PLATE
[2] = Test System: AMES SALMONELLA TYPHIMURIUM, Strain/Indicator: TA98, Metabolic Activation: RAT, LIVER, S-9, AROCLOR 1254, Method: STANDARD PLATE
[3] = Test System: AMES SALMONELLA TYPHIMURIUM, Strain/Indicator: TA100, Metabolic Activation: RAT, LIVER, S-9, AROCLOR 1254, Method: STANDARD PLATE
[4] = Test System: AMES SALMONELLA TYPHIMURIUM, Strain/Indicator: TA1535, Metabolic Activation: NONE, Method: STANDARD PLATE
[5] = Test System: AMES SALMONELLA TYPHIMURIUM, Strain/Indicator: TA1537, Metabolic Activation: NONE, Method: STANDARD PLATE
[6] = Test System: AMES SALMONELLA TYPHIMURIUM, Strain/Indicator: TA1538, Metabolic Activation: NONE, Method: STANDARD PLATE
[7] = Test System: AMES SALMONELLA TYPHIMURIUM, Strain/Indicator: TA100, Metabolic Activation: NONE, Method: STANDARD PLATE

Structure (SMILES): O=[N+]([O-])c1cc2c3c(c1)CCc1c4c(cc(c1-3)CC2)CCCC4
- mutagenic call (Test System: AMES SALMONELLA TYPHIMURIUM, Strain/Indicator: TA98(1,8-DNP6), Metabolic Activation: NONE): active; positive
- mutagenic call (Test System: AMES SALMONELLA TYPHIMURIUM, Strain/Indicator: TA98(1,8-DNP6), Metabolic Activation: RAT, LIVER, S-9, AROCLOR 1254): active; positive
- mutagenic call (Test System: AMES SALMONELLA TYPHIMURIUM, Strain/Indicator: TA98(NR), Metabolic Activation: NONE): active; positive
- mutagenic call (Test System: AMES SALMONELLA TYPHIMURIUM, Strain/Indicator: TA98(NR), Metabolic Activation: RAT, LIVER, S-9, AROCLOR 1254): active; positive
- mutagenic call (Test System: AMES SALMONELLA TYPHIMURIUM, Strain/Indicator: TA98, Metabolic Activation: NONE): active; positive
- mutagenic call (Test System: AMES SALMONELLA TYPHIMURIUM, Strain/Indicator: TA98, Metabolic Activation: RAT, LIVER, S-9, AROCLOR 1254): active; positive
- mutagenic call (Test System: AMES SALMONELLA TYPHIMURIUM, Strain/Indicator: TA100(NR), Metabolic Activation: NONE): active; positive
- mutagenic call (Test System: AMES SALMONELLA TYPHIMURIUM, Strain/Indicator: TA100(NR), Metabolic Activation: RAT, LIVER, S-9, AROCLOR 1254): active; positive
- mutagenic call (Test System: AMES SALMONELLA TYPHIMURIUM, Strain/Indicator: TA100, Metabolic Activation: NONE): active; positive
- mutagenic call (Test System: AMES SALMONELLA TYPHIMURIUM, Strain/Indicator: TA100, Metabolic Activation: RAT, LIVER, S-9, AROCLOR 1254): active; positive
- mutagenic call (Test System: AMES SALMONELLA TYPHIMURIUM, Strain/Indicator: TA104, Metabolic Activation: NONE): active; positive
- mutagenic call (Test System: AMES SALMONELLA TYPHIMURIUM, Strain/Indicator: TA104, Metabolic Activation: RAT, LIVER, S-9, AROCLOR 1254): active; positive

Structure (SMILES): Nc1cc2ccccc2c2ccccc12
- mutagenic call (Test System: AMES SALMONELLA TYPHIMURIUM, Strain/Indicator: TA98, Metabolic Activation: RAT, LIVER, S-9, AROCLOR 1254 (2 OR 4%), Method: STANDARD PLATE): active; positive
- mutagenic call (Test System: AMES SALMONELLA TYPHIMURIUM, Strain/Indicator: TA100, Metabolic Activation: RAT, LIVER, S-9, AROCLOR 1254 (4%), Method: STANDARD PLATE): active; positive
- mutagenic call (Test System: AMES SALMONELLA TYPHIMURIUM, Strain/Indicator: TA1535, Metabolic Activation: RAT, LIVER, S-9, AROCLOR 1254 (4%), Method: STANDARD PLATE): active; positive
- mutagenic call (Test System: AMES SALMONELLA TYPHIMURIUM, Strain/Indicator: TA1537, Metabolic Activation: RAT, LIVER, S-9, AROCLOR 1254 (4%), Method: STANDARD PLATE): active; positive

Structure (SMILES): CC(=O)c1cccc(N=Nc2ccc(N)c(C(C)=O)c2C)c1C
- mutagenic call (Test System: AMES SALMONELLA TYPHIMURIUM, Strain/Indicator: TA98, Metabolic Activation: NONE, Method: PREINCUBATION): inactive; negative
- mutagenic call (Test System: AMES SALMONELLA TYPHIMURIUM, Strain/Indicator: TA98, Metabolic Activation: RAT, LIVER, S-9, PHENOBARBITAL AND 5,6-BENZOFLAVONE, Method: PREINCUBATION): inactive; negative
- mutagenic call (Test System: AMES SALMONELLA TYPHIMURIUM, Strain/Indicator: TA100, Metabolic Activation: NONE, Method: PREINCUBATION): inactive; negative
- mutagenic call (Test System: AMES SALMONELLA TYPHIMURIUM, Strain/Indicator: TA100, Metabolic Activation: RAT, LIVER, S-9, PHENOBARBITAL AND 5,6-BENZOFLAVONE, Method: PREINCUBATION): inactive; negative

Structure (SMILES): Cc1ccc2c(c1)c(=NC(=O)c1cccc([N+](=O)[O-])c1)sn2C(=O)c1cccc([N+](=O)[O-])c1
- mutagenic call (Test System: AMES SALMONELLA TYPHIMURIUM, Strain/Indicator: TA100, Metabolic Activation: S-9, Method: STANDARD PLATE): active; positive

Structure (SMILES): O=C1c2cccc(O)c2C(=O)c2cccc(O)c21
- mutagenic call [1]: active; positive
- mutagenic call [2]: active; positive
- mutagenic call [3]: inactive; negative
- mutagenic call [4]: inactive; negative
- mutagenic call (Test System: AMES SALMONELLA TYPHIMURIUM, Strain/Indicator: TA1535, Metabolic Activation: RAT, LIVER, S-9, AROCLOR 1254, Method: STANDARD PLATE): inactive; negative
- mutagenic call [5]: active; positive
- mutagenic call (Test System: AMES SALMONELLA TYPHIMURIUM, Strain/Indicator: TA1537, Metabolic Activation: RAT, LIVER, S-9, AROCLOR 1254, Method: STANDARD PLATE): active; positive
- mutagenic call (Test System: AMES SALMONELLA TYPHIMURIUM, Strain/Indicator: TA1537, Metabolic Activation: RAT, LIVER, S-9, Method: PREINCUBATION): active; positive
- mutagenic call [6]: active; positive
- mutagenic call (Test System: AMES SALMONELLA TYPHIMURIUM, Strain/Indicator: TA1978, Metabolic Activation: NONE, Method: STANDARD PLATE): inactive; negative
- mutagenic call (Test System: AMES SALMONELLA TYPHIMURIUM, Strain/Indicator: TA1978, Metabolic Activation: RAT, LIVER, S-9, AROCLOR 1254, Method: STANDARD PLATE): inactive; negative
- mutagenic call (Test System: AMES SALMONELLA TYPHIMURIUM, Strain/Indicator: TA2637, Metabolic Activation: RAT, LIVER, S-9, 5,6-BENZOFLAVONE AND/OR SODIUM PHENOBARBITAL, Method: PREINCUBATION): active; positive
- mutagenic call (Test System: AMES SALMONELLA TYPHIMURIUM, Strain/Indicator: TA2637, Metabolic Activation: RAT, LIVER, S-105, 5,6-BENZOFLAVONE AND/OR SODIUM PHENOBARBITAL, Method: PREINCUBATION): inactive; negative

Structure (SMILES): Nc1ccc2c([nH]c3ccccc32)c1[N+](=O)[O-]
- mutagenic call [1]: active; positive
- mutagenic call (Test System: AMES SALMONELLA TYPHIMURIUM, Strain/Indicator: TA98, Metabolic Activation: RAT, LIVER, S-9, PHENOBARBITAL, Method: STANDARD PLATE): active; positive
- mutagenic call [7]: active; positive
- mutagenic call (Test System: AMES SALMONELLA TYPHIMURIUM, Strain/Indicator: TA100, Metabolic Activation: RAT, LIVER, S-9, PHENOBARBITAL, Method: STANDARD PLATE): active; positive
- mutagenic call [5]: active; positive
- mutagenic call (Test System: AMES SALMONELLA TYPHIMURIUM, Strain/Indicator: TA1537, Metabolic Activation: RAT, LIVER, S-9, PHENOBARBITAL, Method: STANDARD PLATE): active; positive
- mutagenic call [6]: active; positive
- mutagenic call (Test System: AMES SALMONELLA TYPHIMURIUM, Strain/Indicator: TA1538, Metabolic Activation: RAT, LIVER, S-9, PHENOBARBITAL, Method: STANDARD PLATE): active; positive
- mutagenic call (Test System: AMES SALMONELLA TYPHIMURIUM, Strain/Indicator: TA1977, Metabolic Activation: NONE, Method: STANDARD PLATE): inactive; negative
- mutagenic call (Test System: AMES SALMONELLA TYPHIMURIUM, Strain/Indicator: TA1977, Metabolic Activation: RAT, LIVER, S-9, PHENOBARBITAL, Method: STANDARD PLATE): active; positive

Structure (SMILES): CC(N)=O
- mutagenic call (End Point: IN VIVO MICRONUCLEUS, Test System: BLOOD ERYTHROCYTES, Species: MOUSE, Strain/Sex: CD-1/MALE, Route: INTRAPERITONEAL INJECTION): inactive; negative
- mutagenic call [1]: inactive; negative
- mutagenic call (Test System: AMES SALMONELLA TYPHIMURIUM, Strain/Indicator: TA98, Metabolic Activation: RAT, LIVER, S-9, Method: STANDARD PLATE): inactive; negative
- mutagenic call [7]: inactive; negative
- mutagenic call (Test System: AMES SALMONELLA TYPHIMURIUM, Strain/Indicator: TA100, Metabolic Activation: RAT, LIVER, S-9, Method: STANDARD PLATE): inactive; negative
- mutagenic call (Test System: Ames Salmonella typhimurium, Strain/Indicator: YG7108pin3ERb5, Metabolic Activation: None, Method: Standard plate): inactive; negative

Structure (SMILES): CCN(CC)CC(=O)Nc1c(C(=O)c2ccccc2F)c(C)nn1C
- mutagenic call (Test System: AMES SALMONELLA TYPHIMURIUM, Strain/Indicator: TA98, Metabolic Activation: RAT, LIVER, S-9, AROCLOR 1254, Method: PREINCUBATION): active; positive
- mutagenic call [2]: inactive; negative
- mutagenic call (Test System: AMES SALMONELLA TYPHIMURIUM, Strain/Indicator: TA100, Metabolic Activation: RAT, LIVER, S-9, AROCLOR 1254, Method: PREINCUBATION): active; positive
- mutagenic call [3]: inactive; negative

Structure (SMILES): C=CCCCCCCCCCCCCC
- mutagenic call (Test System: AMES SALMONELLA TYPHIMURIUM, Strain/Indicator: TA98, Metabolic Activation: MOUSE, LIVER, S-9, Method: STANDARD PLATE): inactive; negative
- mutagenic call [1]: inactive; negative
- mutagenic call (Test System: AMES SALMONELLA TYPHIMURIUM, Strain/Indicator: TA100, Metabolic Activation: MOUSE, LIVER, S-9, Method: STANDARD PLATE): inactive; negative
- mutagenic call [7]: inactive; negative
- mutagenic call [4]: inactive; negative
- mutagenic call [6]: inactive; negative
